Measurements reported in patent US20260014278A1, “HYBRID PEPTIDE DENDRIMER SYSTEMS AND EXTRAHEPATIC DELIVERY” (NUNTIUS THERAPEUTICS LIMITED, priority 2022, published 2026).

Assays:
mouse macrophages = experiment: eGFP mRNA transfection of mouse macrophages with or without mannose-dendrimer coat; assay type: cell-based
Description: J774.2 cells were subcultured in DMEM supplemented with 2 mM glutamax and 10% heat-inactivated FBS (complete media). Twice a week (at about 70-80% confluency; every 3-4 days), cells were scrapped and collected into Falcon tubes, and pelleted at 400 g for 5 minutes. The cells were resuspended in complete media, counted and seeded into 10 cm dishes at a density of 1.7-2.5E+4 cells/cm^2. For M2 polarisation, the cells were treated with complete media supplemented with 20 ng/ml recombinant murine IL-4 and 20 ng/ml recombinant murine IL-13 (activation media) over a 48 hr period. After 24 hrs in IL-4 and IL-13 containing medium, the cells scrapped and collected as described above. The cells were seeded into 24-well plates at a density of 1.2E+5 cells/well in 0.5mls/well complete media containing 20 ng/ml IL-4 and IL-13.
The media overlaying the polarised J774.2 cells was aspirated and exchanged with 480 ul/well activation media. 120 ul/well of each test condition (total volume was 600 ul/well) was added (test conditions were prepared in 25 mM HEPES solution). Control conditions were prepared consisting of neat 25 mM HEPES and an mRNA control. Between addition of each test condition the plate was shaken back and forth to ensure mixing. The plate was placed into the incubator overnight.
Staining and fixation for both human and mouse-derived macrophages was carried out as follows. After 24 hrs the media overlaying each test condition was transferred to corresponding 1.5 ml Eppendorf tubes (in order to conserve cells that may have died during transfection). Cells were then washed with 300 ul/well PBS which was transferred to the corresponding tubes. 500 ul/well 5 mM EDTA was added to each well and the plate(s) transferred to the 37° C. incubator for 5-10 minutes until the cells started to detach. Cells were then transferred from the plate to the corresponding 1.5 ml tubes. Cells were pelleted down at 300 g for 5 minutes and resuspended in 100 ul/sample fixable Live/Dead Aqua stain. ArC beads were stained with 3 ul neat Live/Dead Aqua for compensation. These cells were stained on ice for 30 minutes. Following this, the tubes were spun down at 300 g for 5 minutes. The supernatant was discarded, and the cells were resuspended in 500 ul/sample PBS. Negative ArC beads were added to the compensation control. GFP compensation beads were dispensed into separate tube as the GFP compensation control. The samples were spun down at 300 g for 5 minutes. Samples were then resuspended in 100 ul/sample of Reagent A from the Invitrogen Fix/Perm kit and left at room temperature for 15 minutes. The samples were spun down at 400 g for 5 minutes and the supernatant was disposed. The samples were once again washed with PBS and spun down at 300 g for 5 minutes. The cells were finally resuspended in 400 ul/sample FACS buffer (PBS+2 mM EDTA+0.5% w/v BSA) for flow analysis. Samples were stored in the fridge prior to flow analysis and run within 24 hrs of fixation.
12 μl of a nanoparticle formulation was aliquoted into a sterile 0.5 ml polypropylene tube. 4 μl of a 0.3 mg/ml, 0.6 mg/ml or 1.8 mg/ml solution of (Ac-EEEE)2[…][(S-S)-α-D-Thiomannose] (for a mRNA:coating mass ratio of 1:0.5, 1:1 or 1:3, respectively) was mixed by rapidly pipetting up and down 10-15 times, and allowed to incubate for 5 minutes.
Macrophages, and in particular M2-phenotype macrophages, are known to have enriched surface expression of the receptor CD206, the ligand for which is mannose.

human THP-1 cells = experiment: eGFP mRNA transfection of human THP-1 macrophages, flow cytometry; assay type: cell-based; conditions: THP-1, FIG. 3
Description: THP-1 cells (a human leukaemia monocytic cell line) were sub-cultured in RPMI (with glutamax)+10% heat inactivated FBS (complete media) at 3E+5 cells/ml and passaged every 3-4 days. For macrophage polarisation 7.5E+6 cells were seeded in T75 flasks in a total of 20 ml complete media containing 5 ng/ml PMA (1:1000 of 5 ug/ml stock). The cells were transferred to the 37° C. incubator for overnight. After 24 hrs, THP-1 cells were washed with complete medium and a fresh flask complete medium (not containing PMA) was overlaid on the cells. After a further 72 hrs, the complete medium was exchanged for fresh complete media containing 20 ng/ml rhlL-4 (1:500 of 10 μg/ml stock). 24 hrs later the cells were harvested by firstly washing the cells with PBS followed by a 5 minute treatment at 37° C. with 5 mM EDTA (diluted in PBS). Cells were spun down at 300 g for 5 minutes and resuspended in a complete medium containing 20 ng/ml rhlL-4 at 2.4E+5 cells/mi. 500 ul of cells were seeded into each well on a 24-well plate and left overnight in the 37° C. incubator.
The medium overlaying the polarised THP-1 cells was aspirated and exchanged with 480 ul/well complete media containing 20 ng/ml rhlL-4. […]
Data were collected using a BD LSRFortessa I analyser running […] software (Beckton Dickinson). All collected data were analysed using FlowJo 10.0 software. […]

(RHL)4(KRHL)2KGSC-NH2 [GSCG1,2-RHL]
transfection efficiency with mannose-conjugated dendrimer coat versus uncoated (mouse macrophages; NP=0.6:1, lipid:mRNA w/w 10:1, coat 3:1 (3 eq) coating:mRNA, FIG. 7): further increase the transfection efficiency
transfection efficiency (mouse macrophages; NP=0.6:1, lipid:mRNA w/w 10:1, uncoated, FIG. 7): > 70%
transfection rate (mouse macrophages; NP=8:1, DOTMA/DOPE:mRNA w/w 10:1, uncoated, FIG. 6): ~60%
transfection efficiency (mouse macrophages; NP=8:1, lipid:mRNA w/w 2.5:1, coated with (Ac-EEEE)2KGSGGSGGSC[(S-S)-α-D-Thiomannose] at 1:1 (1 eq) coating:mRNA, FIG. 4): ~25%
transfection efficiency (mouse macrophages; NP=8:1, lipid:mRNA w/w 2.5:1, uncoated, FIG. 4): 2-3%
transfection efficiency (mouse macrophages; NP=8:1, lipid:mRNA w/w 5:1, dendrimer-mannose coat 0.5:1 (0.5 eq) coating:mRNA, FIG. 5): ~75%
transfection efficiency (mouse macrophages; NP=8:1, lipid:mRNA w/w 5:1, uncoated, lipid-only nanoparticles as comparator, FIG. 5): ~60%
increase of transfection efficiency at NP=0.6:1 compared to NP=5:1 (human THP-1 cells): approximately 10%
